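Tested at 5 concentrations; 48 h exposure; 96-well plates; endpoints linearly interpolated, else capped at highest concentration. GI50 = concentration required for 50% inhibition of growth. TGI marks complete inhibition of growth.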 Where a SMILES comes first, the peptide text is derived from it.
Legend:
Experiment in all cases: NCI-60 cell line screen, 48 h
HCC-2998 colon = system: HCC-2998 colon
HT29 colon = system: HT29 colon
K-562 leukemia = system: K-562 leukemia
LOX IMVI melanoma = system: LOX IMVI melanoma
MDA-MB-231 breast = system: MDA-MB-231 breast
RPMI-8226 leukemia = system: RPMI-8226 leukemia
SF-268 CNS = system: SF-268 CNS
SK-MEL-2 melanoma = system: SK-MEL-2 melanoma
SK-MEL-5 melanoma = system: SK-MEL-5 melanoma
SW-620 colon = system: SW-620 colon

| SMILES | TGI (HCC-2998 colon) [µM] | TGI (HT29 colon) [µM] | TGI (K-562 leukemia) [µM] | TGI (LOX IMVI melanoma) [µM] | TGI (MDA-MB-231 breast) [µM] | TGI (RPMI-8226 leukemia) [µM] | TGI (SF-268 CNS) [µM] | TGI (SK-MEL-2 melanoma) [µM] | TGI (SK-MEL-5 melanoma) [µM] | TGI (SW-620 colon) [µM] | GI50 (HCC-2998 colon) [µM] | GI50 (HT29 colon) [µM] | GI50 (K-562 leukemia) [µM] | GI50 (LOX IMVI melanoma) [µM] | GI50 (MDA-MB-231 breast) [µM] | GI50 (RPMI-8226 leukemia) [µM] | GI50 (SF-268 CNS) [µM] | GI50 (SK-MEL-2 melanoma) [µM] | GI50 (SK-MEL-5 melanoma) [µM] | GI50 (SW-620 colon) [µM] |
| --- | --- | --- | --- | --- | --- | --- | --- | --- | --- | --- | --- | --- | --- | --- | --- | --- | --- | --- | --- | --- |
| COc1cc(/C=N/c2nc3cc4sc(/N=C/c5cc(OC)c(OC)c(OC)c5)nc4cc3s2)cc(OC)c1OC | > 100 | > 100 | > 100 | > 100 | > 100 | > 100 | > 100 | > 100 | > 100 | > 100 |  |  |  |  |  |  |  |  |  |  |
| CCc1n[nH]c(=O)n1/N=C(\C)c1ccc([N+](=O)[O-])cc1 |  | > 100 | > 100 | > 100 | > 100 | > 100 | > 100 | > 100 | > 100 | > 100 |  |  |  |  |  |  |  |  |  |  |
| O=C(NC(Cc1ccc(Br)cc1)C(=O)O)c1ccc(I)cc1 (stereo unspecified) | > 100 | > 100 | > 100 | > 100 |  | > 100 | > 100 | > 100 | > 100 | > 100 |  |  |  |  |  |  |  |  |  |  |
| CCCCCCCCCCCCCC1=C(O)C(=O)C(CC2=C(O)C(=O)C(CCCCCCCCCCCCC)=C(O)C2=O)=C(O)C1=O |  | > 100 | > 100 | > 100 | > 100 |  | > 100 | > 100 | > 100 | > 100 |  |  |  |  |  |  |  |  |  |  |
| O=C1c2cccnc2C(=O)c2c1c(C(=O)OCCN1CCCCC1)c1ccccn21 | 1.57 | 1.71 | 1.67 | 0.095 | 12.6 | 0.95 | 0.365 | 0.224 | 0.113 | 0.362 | 0.0788 | 0.12 | 0.0484 | 0.0172 | 0.731 | 0.119 | 0.0345 | 0.0909 | 0.0251 | 0.0187 |
| Cc1cc2c(c(O)c1-c1c(C)cc(O)c3c1C(=O)C=CC3=O)C(=O)C=CC2=O | 10.1 |  | 0.23 | 4.21 | 4.88 | 2.29 |  | 62.1 | 14.5 |  |  |  |  |  |  |  |  |  |  |  |
| O=C(Oc1c(Cl)cc(C2(c3cc(Cl)c(OC(=O)c4ccccc4)c(Cl)c3)CCCCC2)cc1Cl)c1ccccc1 | 22.9 | 30 | 31 | 29.1 | 27.3 | 33.3 | 27.2 | 23.9 | 22.9 | 39.5 |  |  |  |  |  |  |  |  |  |  |
| CC1C(=O)CC(c2cccs2)N(N=O)C1c1cccs1 (stereo unspecified) | > 100 | > 59.1 | 27.6 | > 100 |  | 67.2 | > 100 | > 92.3 | > 100 | > 100 |  |  |  |  |  |  |  |  |  |  |
| CC1(CO)COS(=O)OC1 (stereo unspecified) | > 100 | > 100 |  | > 100 | > 100 |  | > 100 |  | > 100 | > 100 |  |  |  |  |  |  |  |  |  |  |
| OC[C@H]1NC[C@@H](O)[C@@H](O)[C@H]1O | > 100 | > 100 | > 100 | > 100 | > 100 | > 100 |  | > 100 | > 100 | > 100 |  |  |  |  |  |  |  |  |  |  |
| O=C(CSCC(=O)N/N=C/c1ccccc1)N/N=C\c1ccccc1 |  | > 100 | > 100 | > 100 | > 100 | > 100 | > 100 | > 100 | > 100 | > 100 |  |  |  |  |  |  |  |  |  |  |
| S=c1c2[nH]cnc2ncn1CCSC1=NC=NC2=NC=NC21 (stereo unspecified) | > 100 | > 100 | > 100 | > 100 | > 100 | > 100 | > 100 | > 100 | > 100 | > 100 |  |  |  |  |  |  |  |  |  |  |
| Cc1[nH]c(=O)[nH]c(=O)c1/C=C/C(=O)NC(CO)CS(=O)CS(C)=O (stereo unspecified) | 53.8 | 515 | 135 | 86.9 |  | 183 | 35.2 | 59.2 | 76.9 | 409 |  |  |  |  |  |  |  |  |  |  |
| COc1ccc(-c2nc3c(nc2-c2ccc(OC)cc2)C(N)=NS(=O)(=O)N3)cc1 | > 100 | > 100 | > 100 | > 100 |  | > 100 | > 100 | > 100 | > 100 | > 100 |  |  |  |  |  |  |  |  |  |  |
| CSc1nc(CO)c(CO)n1C | > 100 | > 100 | > 100 | > 100 |  | > 100 | > 100 | > 100 | > 100 | > 100 |  |  |  |  |  |  |  |  |  |  |
| CN(Cc1cn(O)c2nc(=N)nc(N)c-2n1)c1ccc(C(=O)NC23CC4CC(CC(C4)C2)C3)cc1 |  |  | > 100 | > 100 | > 100 | > 100 | 81.4 | > 100 | > 100 | > 100 |  |  |  |  |  |  |  |  |  |  |
| NC(=O)C1CCCN1C(=O)C(N)Cc1ccccc1 (stereo not drawn) (H-Phe-Pro-NH2; configuration not given here) | > 100 | > 100 | > 100 | > 100 | > 100 | > 100 | > 100 |  | > 100 | > 100 |  |  |  |  |  |  |  |  |  |  |

From PubChem BioAssay (NCI)
